Measurements published in ChEMBL document CHEMBL5724806, “Unraveling interindividual differences and functional consequences of gut microbial metabolism of immunosuppressants” (2024).

Tests used:
Assay type in all cases: ADME
[1] = The drug is tested on Bacteroides caccae strain: DSM19024 for biotransformation under anaerobic condition. The drug concentrations were measured over 6 timepoints collected between 0 and 12 hours of incubation by liquid-chromatography-coupled mass spectrometry (LC–MS); design: dose 5 uM, timepoint 0, 1.5, 3, 6, 9, 12 hours; settings: 5 µM
[2] = The drug is tested on Bacteroides fragilis strain: DSM2151 for biotransformation under anaerobic condition. The drug concentrations were measured over 6 timepoints collected between 0 and 12 hours of incubation by liquid-chromatography-coupled mass spectrometry (LC–MS); design: dose 5 uM, timepoint 0, 1.5, 3, 6, 9, 12 hours; settings: 5 µM
[3] = The drug is tested on Bacteroides stercoris strain: HM 1036 for biotransformation under anaerobic condition. The drug concentrations were measured over 6 timepoints collected between 0 and 12 hours of incubation by liquid-chromatography-coupled mass spectrometry (LC–MS); design: dose 5 uM, timepoint 0, 1.5, 3, 6, 9, 12 hours; settings: 5 µM
[4] = The drug is tested on Bacteroides uniformis strain: DSM6597 for biotransformation under anaerobic condition. The drug concentrations were measured over 6 timepoints collected between 0 and 12 hours of incubation by liquid-chromatography-coupled mass spectrometry (LC–MS); design: dose 5 uM, timepoint 0, 1.5, 3, 6, 9, 12 hours; settings: 5 µM
[5] = The drug is tested on Clostridium bolteae strain: DSM15670 for biotransformation under anaerobic condition. The drug concentrations were measured over 6 timepoints collected between 0 and 12 hours of incubation by liquid-chromatography-coupled mass spectrometry (LC–MS); design: dose 5 uM, timepoint 0, 1.5, 3, 6, 9, 12 hours; settings: enterocloster bolteae, 5 µM
[6] = The drug is tested on Clostridium ramosum strain: DSM1402 for biotransformation under anaerobic condition. The drug concentrations were measured over 6 timepoints collected between 0 and 12 hours of incubation by liquid-chromatography-coupled mass spectrometry (LC–MS); design: dose 5 uM, timepoint 0, 1.5, 3, 6, 9, 12 hours; settings: thomasclavelia ramosa, 5 µM
[7] = The drug is tested on Coprococcus comes strain: ATCC27758 for biotransformation under anaerobic condition. The drug concentrations were measured over 6 timepoints collected between 0 and 12 hours of incubation by liquid-chromatography-coupled mass spectrometry (LC–MS); design: dose 5 uM, timepoint 0, 1.5, 3, 6, 9, 12 hours; settings: 5 µM
[8] = The drug is tested on Lactobacillus paracasei strain: ATCC27092 for biotransformation under anaerobic condition. The drug concentrations were measured over 6 timepoints collected between 0 and 12 hours of incubation by liquid-chromatography-coupled mass spectrometry (LC–MS); design: dose 5 uM, timepoint 0, 1.5, 3, 6, 9, 12 hours; settings: lacticaseibacillus paracasei, 5 µM
[9] = The drug is tested on Lactobacillus ruminis strain: ATCC25644 for biotransformation under anaerobic condition. The drug concentrations were measured over 6 timepoints collected between 0 and 12 hours of incubation by liquid-chromatography-coupled mass spectrometry (LC–MS); design: dose 5 uM, timepoint 0, 1.5, 3, 6, 9, 12 hours; settings: ligilactobacillus ruminis, 5 µM
[10] = The drug is tested on Ruminococcus gnavus strain: ATCC29149 for biotransformation under anaerobic condition. The drug concentrations were measured over 6 timepoints collected between 0 and 12 hours of incubation by liquid-chromatography-coupled mass spectrometry (LC–MS); design: dose 5 uM, timepoint 0, 1.5, 3, 6, 9, 12 hours; settings: mediterraneibacter gnavus, 5 µM
[11] = The drug is tested on Streptococcus salivarius strain: DSM20560 for biotransformation under anaerobic condition. The drug concentrations were measured over 6 timepoints collected between 0 and 12 hours of incubation by liquid-chromatography-coupled mass spectrometry (LC–MS); design: dose 5 uM, timepoint 0, 1.5, 3, 6, 9, 12 hours; settings: 5 µM
[12] = The drug is tested on Gemella haemolysans strain: DSM107751 for biotransformation under microaerobic condition. The drug concentrations were measured over 6 timepoints collected between 0 and 12 hours of incubation by liquid-chromatography-coupled mass spectrometry (LC–MS); design: dose 5 uM, timepoint 0, 1.5, 3, 6, 9, 12 hours; settings: 5 µM
[13] = The drug is tested on Lactobacillus gasseri strain: DSM20243 for biotransformation under microaerobic condition. The drug concentrations were measured over 6 timepoints collected between 0 and 12 hours of incubation by liquid-chromatography-coupled mass spectrometry (LC–MS); design: dose 5 uM, timepoint 0, 1.5, 3, 6, 9, 12 hours; settings: 5 µM
[14] = The drug is tested on Streptococcus mitis strain: DSM12643 for biotransformation under microaerobic condition. The drug concentrations were measured over 6 timepoints collected between 0 and 12 hours of incubation by liquid-chromatography-coupled mass spectrometry (LC–MS); design: dose 5 uM, timepoint 0, 1.5, 3, 6, 9, 12 hours; settings: 5 µM
[15] = The drug is tested on Streptococcus salivarius strain: DSM20560 for biotransformation under microaerobic condition. The drug concentrations were measured over 6 timepoints collected between 0 and 12 hours of incubation by liquid-chromatography-coupled mass spectrometry (LC–MS); design: dose 5 uM, timepoint 0, 1.5, 3, 6, 9, 12 hours; settings: 5 µM
[16] = The drug is tested on the gut metagenome community of A-02 with ENA study accession number: PRJEB31790 for biotransformation under anaerobic condition. The drug concentrations were measured over 7 timepoints collected between 0 and 12 hours of incubation by liquid-chromatography-coupled mass spectrometry (LC–MS); design: dose 5 uM, timepoint 0, 0.75, 1.5, 3, 6, 9, 12 hours; settings: 5 µM
[17] = The drug is tested on the gut metagenome community of A-03 with ENA study accession number: PRJEB31790 for biotransformation under anaerobic condition. The drug concentrations were measured over 7 timepoints collected between 0 and 12 hours of incubation by liquid-chromatography-coupled mass spectrometry (LC–MS); design: dose 5 uM, timepoint 0, 0.75, 1.5, 3, 6, 9, 12 hours; settings: 5 µM
[18] = The drug is tested on the gut metagenome community of P-01 with ENA study accession number: PRJEB31790 for biotransformation under anaerobic condition. The drug concentrations were measured over 7 timepoints collected between 0 and 12 hours of incubation by liquid-chromatography-coupled mass spectrometry (LC–MS); design: dose 5 uM, timepoint 0, 0.75, 1.5, 3, 6, 9, 12 hours; settings: 5 µM
[19] = The drug is tested on the gut metagenome community of T-01 with ENA study accession number: PRJEB31790 for biotransformation under anaerobic condition. The drug concentrations were measured over 7 timepoints collected between 0 and 12 hours of incubation by liquid-chromatography-coupled mass spectrometry (LC–MS); design: dose 5 uM, timepoint 0, 0.75, 1.5, 3, 6, 9, 12 hours; settings: 5 µM
[20] = The drug is tested on the gut metagenome community of A-03 with ENA study accession number: PRJEB31790 for biotransformation under microaerobic condition. The drug concentrations were measured over 7 timepoints collected between 0 and 12 hours of incubation by liquid-chromatography-coupled mass spectrometry (LC–MS); design: dose 5 uM, timepoint 0, 0.75, 1.5, 3, 6, 9, 12 hours; settings: 5 µM
[21] = The drug is tested on the gut metagenome community of A-04 with ENA study accession number: PRJEB31790 for biotransformation under microaerobic condition. The drug concentrations were measured over 7 timepoints collected between 0 and 12 hours of incubation by liquid-chromatography-coupled mass spectrometry (LC–MS); design: dose 5 uM, timepoint 0, 0.75, 1.5, 3, 6, 9, 12 hours; settings: 5 µM
[22] = The drug is tested on the gut metagenome community of P-04 with ENA study accession number: PRJEB31790 for biotransformation under microaerobic condition. The drug concentrations were measured over 7 timepoints collected between 0 and 12 hours of incubation by liquid-chromatography-coupled mass spectrometry (LC–MS); design: dose 5 uM, timepoint 0, 0.75, 1.5, 3, 6, 9, 12 hours; settings: 5 µM
[23] = The drug is tested on the gut metagenome community of T-04 with ENA study accession number: PRJEB31790 for biotransformation under microaerobic condition. The drug concentrations were measured over 7 timepoints collected between 0 and 12 hours of incubation by liquid-chromatography-coupled mass spectrometry (LC–MS); design: dose 5 uM, timepoint 0, 0.75, 1.5, 3, 6, 9, 12 hours; settings: 5 µM

SMILES | Bacterial Biotransformation [1] | Bacterial Biotransformation [2] | Bacterial Biotransformation [3] | Bacterial Biotransformation [4] | Bacterial Biotransformation [5] | Bacterial Biotransformation [6] | Bacterial Biotransformation [7] | Bacterial Biotransformation [8] | Bacterial Biotransformation [9] | Bacterial Biotransformation [10] | Bacterial Biotransformation [11] | Bacterial Biotransformation [12] | Bacterial Biotransformation [13] | Bacterial Biotransformation [14] | Bacterial Biotransformation [15] | Bacterial Biotransformation [16] | Bacterial Biotransformation [17] | Bacterial Biotransformation [18] | Bacterial Biotransformation [19] | Bacterial Biotransformation [20] | other results
CO[C@H]1C[C@@H]2CC[C@@H](C)[C@@](O)(O2)C(=O)C(=O)N2CCCC[C@H]2C(=O)O[C@H]([C@H](C)C[C@@H]2CC[C@@H](O)[C@H](OC)C2)CC(=O)[C@H](C)/C=C(\C)[C@@H](O)[C@@H](OC)C(=O)[C@H](C)C[C@H](C)/C=C/C=C/C=C/1C [SIROLIMUS] | Compound metabolized | Compound NOT metabolized | Compound metabolized | Compound metabolized | Compound metabolized | Compound NOT metabolized | Compound metabolized | Compound NOT metabolized | Compound NOT metabolized | Compound NOT metabolized | Compound metabolized | Compound NOT metabolized | Compound NOT metabolized | Compound NOT metabolized | Compound NOT metabolized | Compound metabolized | Compound metabolized | Compound NOT metabolized | Compound NOT metabolized | Compound metabolized | Bacterial Biotransformation [21]: Compound metabolized; Bacterial Biotransformation [22]: Compound NOT metabolized; Bacterial Biotransformation [23]: Compound NOT metabolized
C=CC[C@@H]1/C=C(\C)C[C@H](C)C[C@H](OC)[C@H]2O[C@@](O)(C(=O)C(=O)N3CCCC[C@H]3C(=O)O[C@H](/C(C)=C/[C@@H]3CC[C@@H](O)[C@H](OC)C3)[C@H](C)[C@@H](O)CC1=O)[C@H](C)C[C@@H]2OC.O [TACROLIMUS] | Compound NOT metabolized | Compound NOT metabolized | Compound NOT metabolized | Compound metabolized | Compound NOT metabolized | Compound NOT metabolized | Compound metabolized | Compound NOT metabolized | Compound NOT metabolized | Compound NOT metabolized | Compound NOT metabolized | Compound NOT metabolized | Compound NOT metabolized | Compound NOT metabolized | Compound NOT metabolized | Compound NOT metabolized | Compound NOT metabolized | Compound NOT metabolized | Compound metabolized | Compound metabolized | Bacterial Biotransformation [21]: Compound metabolized; Bacterial Biotransformation [22]: Compound NOT metabolized; Bacterial Biotransformation [23]: Compound metabolized
